Several values for one entry are separate records, joined by “and”; a condition that tells them apart may be missing. Equal values may be shown once.
Conditions: 343.15 K, Liquid, Vibrating tube method

CCCCCC(=O)OCC(COC(=O)CCCCC)(COC(=O)CCCCC)COC(=O)CCCCC [pentaerythritol tetrahexanoate]
Conditions | mass density
311.7 kPa | 957.4 kg/m3
311.9 kPa | 957.5 kg/m3
312 kPa | 957.2 kg/m3
312.2 kPa | 957.3 kg/m3
312.5 kPa | 957.3 kg/m3
315 kPa | 957.3 kg/m3
315.7 kPa | 957.4 kg/m3
316 kPa | 957.4 kg/m3
316.5 kPa | 957.4 kg/m3
316.6 kPa | 957.4 kg/m3
316.7 kPa | 957.4 kg/m3
318.5 kPa | 957.4 kg/m3
318.8 kPa | 957.3 kg/m3
319.3 kPa | 957.3 kg/m3 and 957.2 kg/m3 and 957.4 kg/m3
319.7 kPa | 957.3 kg/m3
319.9 kPa | 957.3 kg/m3
320.4 kPa | 957.2 kg/m3
320.7 kPa | 957.3 kg/m3
321.2 kPa | 957.3 kg/m3
322.1 kPa | 957.1 kg/m3
322.5 kPa | 957.3 kg/m3
322.8 kPa | 957.3 kg/m3
323.1 kPa | 957.3 kg/m3
323.2 kPa | 957.4 kg/m3
323.3 kPa | 957.2 kg/m3
323.7 kPa | 957.4 kg/m3
323.9 kPa | 957.3 kg/m3
324 kPa | 957.3 kg/m3
324.2 kPa | 957.3 kg/m3
324.5 kPa | 957.3 kg/m3
324.7 kPa | 957.3 kg/m3
325.1 kPa | 957.3 kg/m3
325.2 kPa | 957.3 kg/m3
325.9 kPa | 957.3 kg/m3
326.3 kPa | 957.3 kg/m3
326.4 kPa | 957.4 kg/m3
326.6 kPa | 957.3 kg/m3
327 kPa | 957.2 kg/m3
327.1 kPa | 957.3 kg/m3
327.5 kPa | 957.4 kg/m3
327.7 kPa | 957.2 kg/m3
328 kPa | 957.4 kg/m3
333.2 kPa | 957.4 kg/m3
333.4 kPa | 957.3 kg/m3
333.7 kPa | 957.2 kg/m3
333.9 kPa | 957.3 kg/m3
334.3 kPa | 957.2 kg/m3
334.6 kPa | 957.3 kg/m3
334.8 kPa | 957.3 kg/m3
335.1 kPa | 957.4 kg/m3
335.5 kPa | 957.3 kg/m3
336.2 kPa | 957.3 kg/m3
336.5 kPa | 957.3 kg/m3
336.9 kPa | 957.4 kg/m3
338.1 kPa | 957.3 kg/m3
338.6 kPa | 957.3 kg/m3
339.1 kPa | 957.3 kg/m3 and 957.2 kg/m3
339.5 kPa | 957.3 kg/m3
339.8 kPa | 957.3 kg/m3
340.2 kPa | 957.3 kg/m3
340.5 kPa | 957.3 kg/m3
340.9 kPa | 957.5 kg/m3
341.6 kPa | 957.4 kg/m3 and 957.2 kg/m3
341.9 kPa | 957.4 kg/m3
342.1 kPa | 957.4 kg/m3
342.8 kPa | 957.2 kg/m3 and 957.3 kg/m3
343.1 kPa | 957.3 kg/m3
343.5 kPa | 957.3 kg/m3
343.6 kPa | 957.4 kg/m3
344.2 kPa | 957.4 kg/m3
344.3 kPa | 957.3 kg/m3
345.9 kPa | 957.3 kg/m3
346.4 kPa | 957.4 kg/m3
346.8 kPa | 957.3 kg/m3
347.3 kPa | 957.4 kg/m3
348 kPa | 957.3 kg/m3
348.3 kPa | 957.2 kg/m3
351.8 kPa | 957.3 kg/m3
352.2 kPa | 957.2 kg/m3
352.7 kPa | 957.4 kg/m3
352.9 kPa | 957.2 kg/m3
353 kPa | 957.3 kg/m3
358.8 kPa | 957.4 kg/m3
359.3 kPa | 957.3 kg/m3
359.6 kPa | 957.4 kg/m3
363.3 kPa | 957.4 kg/m3
363.6 kPa | 957.3 kg/m3
364 kPa | 957.4 kg/m3
364.5 kPa | 957.4 kg/m3
364.7 kPa | 957.4 kg/m3
365 kPa | 957.4 kg/m3
365.4 kPa | 957.4 kg/m3
368.8 kPa | 957.3 kg/m3
369.2 kPa | 957.3 kg/m3
369.7 kPa | 957.3 kg/m3
370.1 kPa | 957.4 kg/m3
372.8 kPa | 957.3 kg/m3
373.2 kPa | 957.4 kg/m3
373.7 kPa | 957.4 kg/m3
374.1 kPa | 957.5 kg/m3 and 957.4 kg/m3
374.7 kPa | 957.3 kg/m3
374.8 kPa | 957.3 kg/m3
375.5 kPa | 957.3 kg/m3
375.8 kPa | 957.2 kg/m3
376 kPa | 957.3 kg/m3
376.5 kPa | 957.4 kg/m3
376.8 kPa | 957.4 kg/m3
377.4 kPa | 957.3 kg/m3
377.5 kPa | 957.4 kg/m3
378.1 kPa | 957.4 kg/m3
378.6 kPa | 957.4 kg/m3
379.1 kPa | 957.3 kg/m3
380.5 kPa | 957.4 kg/m3
380.8 kPa | 957.5 kg/m3
381.2 kPa | 957.5 kg/m3
381.5 kPa | 957.5 kg/m3
382.1 kPa | 957.3 kg/m3
382.7 kPa | 957.3 kg/m3
382.9 kPa | 957.4 kg/m3
383.6 kPa | 957.4 kg/m3
383.8 kPa | 957.4 kg/m3
384.3 kPa | 957.4 kg/m3
384.5 kPa | 957.4 kg/m3
384.8 kPa | 957.5 kg/m3
385.5 kPa | 957.4 kg/m3 and 957.5 kg/m3
385.9 kPa | 957.4 kg/m3
386.7 kPa | 957.5 kg/m3
390.6 kPa | 957.4 kg/m3
390.9 kPa | 957.4 kg/m3
391.4 kPa | 957.3 kg/m3
391.8 kPa | 957.5 kg/m3
392 kPa | 957.3 kg/m3
392.8 kPa | 957.4 kg/m3
393.2 kPa | 957.4 kg/m3
393.7 kPa | 957.4 kg/m3
394 kPa | 957.4 kg/m3
394.9 kPa | 957.3 kg/m3
395.1 kPa | 957.5 kg/m3
395.4 kPa | 957.3 kg/m3
395.8 kPa | 957.3 kg/m3
396.3 kPa | 957.4 kg/m3
396.8 kPa | 957.4 kg/m3
397.2 kPa | 957.4 kg/m3
397.7 kPa | 957.5 kg/m3
397.9 kPa | 957.4 kg/m3
